From US12617779B2, “Self degradation-type CDK9 inhibitor prodrug and liposome encapsulating same” (Sumitomo Pharma Co., Ltd., priority 2021, dated 2026)

Key:
[1] = Evaluation of conversion rate to active form in buffer solution (Experimental Example 1); assay type: physicochemical
Experimental: For Examples 1 to 16 and Comparative Examples 1 to 14, the attrition rate of the test compound and the conversion rate of the test compound to Alvocidib in a buffer solution were calculated by the following method.
Examples 1 to 16 and Comparative Examples 1 to 14 were each left in buffer solutions adjusted to pH 5.0, 5.5, 6.0, 6.5, 7.0 and 7.4, respectively, at a concentration of 25 umol/L at 37° C. After 0, 0.5, 1, 2 and 3 hours, the residual rates of the compounds of Examples […] and the production rate of Alvocidib were determined by HPLC.
The buffer solutions used at each pH are as follows. • pH 5.0: 50 mM citrate buffer solution (pH 5.0) • pH 5.5: 50 mM citrate buffer solution (pH 5.5) • pH 6.0: 50 mM phosphate buffer solution (pH 6.0) • pH 6.5: 50 mM phosphate buffer solution (pH 6.5) • pH 7.0: 50 mM phosphate buffer solution (pH 7.0) • pH 7.4: 50 mM phosphate buffer solution (pH 7.4)
The measurement conditions for HPLC are as follows.

[2] = Evaluation of conversion rate to active form in human plasma (Experimental Example 3); assay type: in vitro ADME; settings: human, 0.2 μmol/L
Experimental: (§1) For Example 1, Example 2, Example 3, Example 4, Example 5, Example 6, Comparative Example 3, Comparative Example 4, Comparative Example 6, Comparative Example 7, Comparative Example 8, Comparative Example 9, Comparative Example 10 and Comparative Example 12, the attrition rate of the test compound and the conversion rate of the test compound to Alvocidib in human plasma and BALB/c mouse plasma were calculated by the following method.
(§2) The test compound was added to human plasma or BALB/c mouse plasma at a concentration of 0.2 μmol/L, and incubated at 37° C. The peak areas of the test compound and Alvocidib in the sample were determined by LC-MS/MS after 0, 30 and 60 minutes for Example 1, Example 2, Example 3, Example 4, Example 5 and Example 6, and after 0, 60 and 120 minutes for Comparative Example 3, Comparative Example 4, Comparative Example 6, Comparative Example 7, Comparative Example 8, Comparative Example 9, Comparative Example 10 and Comparative Example 12, and the attrition rate of the test compound and the conversion rate of the test compound to Alvocidib were calculated by the following formula. Attrition rate of test compound (%):(peak area of test compound in sample/peak area of test compound in sample after 0 minute)×100 Conversion rate to Alvocidib (%):(peak area of Alvocidib in sample/peak area of Alvocidib in reaction solution containing 0.2 μmol/L Alvocidib)×100
(§3) The measurement conditions for LC-MS/MS are as follows. • HPLC: Prominence system (Shimadzu Corporation) • MS/MS: • Example 1, Example 2, Example 3, Example 4, Example 5, Example 6, Comparative Example 8 (mouse), Comparative Example 10 (mouse) and Comparative Example 12 (mouse) • QTRAP5500 (SCIEX) • Comparative Example 6, Comparative Example 7, Comparative Example 8 (human), Comparative Example 9, Comparative Example 10 (human) and Comparative Example 12 (human) • 4000 QTRAP (SCIEX) • column: • other than Example 3 and Example 4 • Cadenza CD-C18, 3 μm, 50×2 mm (Imtakt Corporation) • Example 3 and Example 4 • Kinetex C8, 2.6 μm, 50×2.1 mm (Phenomenex) • column temperature: 40° C. • mobile phase: • A: water containing 0.1% formic acid • B: acetonitrile containing 0.1% formic acid • A/B (min): • Example 1, Example 2, Example 5, Example 6, Comparative Example 8 (mouse), Comparative Example 10 (mouse) and Comparative Example 12 (mouse) • 90/10(0)→40/60(5.0)→10/90(5.1)→10/90(6.5)→90/10(6.6)→90/10(8.0) • Example 3 and Example 4 • 86/14(0)→86/14(3.5)→10/90(5.5)→10/90(6.5)→86/14(6.6)→86/14(9.5) • Comparative Example 6, Comparative Example 7, Comparative Example 8 (human), Comparative Example 9, Comparative Example 10 (human) and Comparative Example 12 (human) • 90/10(0)→10/90(2.5)→10/90(3.5)→90/10(3.6)→90/10(5.0) • flow rate: 0.4 mL/min • detection: ESI (positive mode) • injection: 1 to 5 μL

[3] = Evaluation of conversion rate to active form in BALB/c mouse plasma (Experimental Example 3); assay type: in vitro ADME; settings: BALB/c, mouse, 0.2 μmol/L
Experimental: as §1, §2, §3

Production rate of Alvocidib ([1]; pH5.0, 0 hr): 2.0%
Residual rate ([1]; pH5.0, 0 hr): 93.4%
Production rate of Alvocidib ([1]; pH5.0, 0.5 hr): 2.3%
Residual rate ([1]; pH5.0, 0.5 hr): 93.2%
Production rate of Alvocidib ([1]; pH5.0, 1 hr): 2.7%
Residual rate ([1]; pH5.0, 1 hr): 92.7%
Production rate of Alvocidib ([1]; pH5.0, 2 hr): 3.7%
Residual rate ([1]; pH5.0, 2 hr): 91.4%
Production rate of Alvocidib ([1]; pH5.0, 3 hr): 4.2%
Residual rate ([1]; pH5.0, 3 hr): 91.2%
Production rate of Alvocidib ([1]; pH5.5, 0 hr): 2.0%
Residual rate ([1]; pH5.5, 0 hr): 93.2%
Production rate of Alvocidib ([1]; pH5.5, 0.5 hr): 2.7%
Residual rate ([1]; pH5.5, 0.5 hr): 92.7%
Production rate of Alvocidib ([1]; pH5.5, 1 hr): 3.7%
Residual rate ([1]; pH5.5, 1 hr): 91.7%
Production rate of Alvocidib ([1]; pH5.5, 2 hr): 5.5%
Residual rate ([1]; pH5.5, 2 hr): 89.9%
Production rate of Alvocidib ([1]; pH5.5, 3 hr): 6.8%
Residual rate ([1]; pH5.5, 3 hr): 88.7%
Production rate of Alvocidib ([1]; pH6.0, 0 hr): 2.1%
Residual rate ([1]; pH6.0, 0 hr): 93.1%
Production rate of Alvocidib ([1]; pH6.0, 0.5 hr): 4.4%
Residual rate ([1]; pH6.0, 0.5 hr): 90.7%
Production rate of Alvocidib ([1]; pH6.0, 1 hr): 7.2%
Residual rate ([1]; pH6.0, 1 hr): 88.6%
Production rate of Alvocidib ([1]; pH6.0, 2 hr): 12.8%
Residual rate ([1]; pH6.0, 2 hr): 83.1%
Production rate of Alvocidib ([1]; pH6.0, 3 hr): 16.3%
Residual rate ([1]; pH6.0, 3 hr): 79.7%
Production rate of Alvocidib ([1]; pH6.5, 0 hr): 2.3%
Residual rate ([1]; pH6.5, 0 hr): 93.2%
Production rate of Alvocidib ([1]; pH6.5, 0.5 hr): 5.1%
Residual rate ([1]; pH6.5, 0.5 hr): 90.9%
Production rate of Alvocidib ([1]; pH6.5, 1 hr): 8.8%
Residual rate ([1]; pH6.5, 1 hr): 87.4%
Production rate of Alvocidib ([1]; pH6.5, 2 hr): 15.6%
Residual rate ([1]; pH6.5, 2 hr): 81.1%
Production rate of Alvocidib ([1]; pH6.5, 3 hr): 20.2%
Residual rate ([1]; pH6.5, 3 hr): 76.6%
Production rate of Alvocidib ([1]; pH7.0, 0 hr): 2.1%
Residual rate ([1]; pH7.0, 0 hr): 93.2%
Production rate of Alvocidib ([1]; pH7.0, 0.5 hr): 5.2%
Residual rate ([1]; pH7.0, 0.5 hr): 92.3%
Production rate of Alvocidib ([1]; pH7.0, 1 hr): 8.5%
Residual rate ([1]; pH7.0, 1 hr): 88.2%
Production rate of Alvocidib ([1]; pH7.0, 2 hr): 15.5%
Residual rate ([1]; pH7.0, 2 hr): 81.5%
Production rate of Alvocidib ([1]; pH7.0, 3 hr): 19.5%
Residual rate ([1]; pH7.0, 3 hr): 75.7%
Production rate of Alvocidib ([1]; pH7.4, 0 hr): 2.1%
Residual rate ([1]; pH7.4, 0 hr): 93.2%
Conversion to Alvocidib at pH 7.4 ([1]; pH 7.4, 37° C., up to 3 hours): slowly converted to Alvocidib
Production rate of Alvocidib ([1]; pH7.4, 0.5 hr): 4.6%
Residual rate ([1]; pH7.4, 0.5 hr): 92.2%
Production rate of Alvocidib ([1]; pH7.4, 1 hr): 7.5%
Residual rate ([1]; pH7.4, 1 hr): 89.3%
Production rate of Alvocidib ([1]; pH7.4, 2 hr): 13.3%
Residual rate ([1]; pH7.4, 2 hr): 82.9%
Production rate of Alvocidib ([1]; pH7.4, 3 hr): 17.1%
Residual rate ([1]; pH7.4, 3 hr): 78.4%
Production rate (%) of Alvocidib ([2]; 0 min): 0%
Residual rate (%) of test compound ([2]; 0 min): 100%
Production rate (%) of Alvocidib ([2]; 60 min): 2%
Residual rate (%) of test compound ([2]; 60 min): 104%
Production rate (%) of Alvocidib ([2]; 120 min): 3%
Residual rate (%) of test compound ([2]; 120 min): 105%
Production rate (%) of Alvocidib ([3]; 0 min): 1%
Residual rate (%) of test compound ([3]; 0 min): 100%
Production rate (%) of Alvocidib ([3]; 60 min): 5%
Residual rate (%) of test compound ([3]; 60 min): 84%
Production rate (%) of Alvocidib ([3]; 120 min): 6%
Residual rate (%) of test compound ([3]; 120 min): 89%
Structure (SMILES): CC(C)[C@H](N)C(=O)O[C@@H]1CN(C)CC[C@@H]1c1c(O)cc(O)c2c(=O)cc(-c3ccccc3Cl)oc12 [Comparative Example 10, reference compound]
